Measurements published in US20060069149A1, “Thiadibenzoazulene derivatives for the treatment of inflammatory diseases” (Pliva-Istrazivacki Institut d.o.o., priority 2003, published 2006).

Test system: TNF-α and IL-1 secretion
Test: investigated assays, not said which: TNF-α and IL-1 secretion in human PBMC, in mouse peritoneal macrophages, LPS-induced secretion in mice, writhing assay, LPS-induced shock in mice
Conditions: active means: PBMC IC50 20 μM or lower; mouse macrophages IC50 10 μM or lower; 30% or more TNF-α inhibition at 10 mg/kg; analgetic activity as acetylsalicylic acid or better; survival 40% or more at 30 mg/kg
Procedure: The inhibitory action of the present compounds upon TNF-α and IL-1 secretion was determined by the following in vitro and in vivo experiments:
Determination of TNF-α and IL-1 Secretion in Human Peripheral Blood Mononuclear Cells in vitro
Human peripheral blood mononuclear cells (PBMC) were prepared from heparinized whole blood after separating PBMC on Ficoll-Paque™Plus (Amersham-Pharmacia). […] The IL-1 level was determined in an assay under the same conditions and with the same number of cells and the same concentration of the stimulus by ELISA procedure (R&D Systems). The percentage of inhibition of TNF-α or IL-1 production was calculated by the equation: % inhibition=[1−(TS−NC)/(PC−NC)]*100. […]
In order to obtain peritoneal macrophages, Balb/C mouse strain males, age 8 to 12 weeks, were injected i.p. with 300 μg of zymosan (SIGMA) dissolved in a phosphate buffer (PBS) in a total volume of 0.1 ml/mouse. […] The TNF-α level in the cell supernatant was determined by ELISA procedure (R&D Systems, Biosource). IL-1 level was determined in an assay, identical to an assay for TNF-a by ELISA procedure (R&D Systems). The percentage of inhibition of TNF-α or IL-1 production was calculated by the equation: % inhibition=[1−(TS−NC)/(PC−NC)]*100. […]

Row | SMILES | activity in the investigated assays
1 | CCOC(=O)c1cc2c(s1)-c1ccc(OCCN3CCCC3)cc1Oc1ccccc1-2 [Example 4, 10-(2-Pyrrolidin-1-yl-ethoxy)-8-oxa-1-thia-dibenzo[e,h]azulene-2-carboxylic acid ethyl ester] | activity in at least two investigated assays
2 | CN(C)CCCOCc1cc2c(s1)-c1ccc(OCCCN(C)C)cc1Oc1ccccc1-2 [Example 14, {3-[2-(3-Dimethylamino-propoxymethyl)-8-oxa-1-thia-dibenzo[e,h]azulene-10-yloxy]-propyl}-dimethyl-amine] | activity in at least two investigated assays
